Experimental data taken from patent US20230312587A1, “PTERIDINONE COMPOUNDS AND USES THEREOF” (Vertex Pharmaceutical Incorporated, priority 2018, published 2023).
Where two headings read alike, the source gives them in different places.

Columns and labels:
[1] = biological target: Plk1 (Homo sapiens (Human), UniProt P53350); experiment: PLK1 inhibition assay (radioactive-phosphate incorporation); assay type: biochemical; conditions: Ki(app), read-out: PLK1 - 33P.ENZ - CB 10 Ki
Experimental: Compounds were screened for their ability to inhibit Plk1 using a radioactive-phosphate incorporation assay. Assays were carried out in a mixture of 25 mM HEPES (pH 7.5), 10 mM MgCl2, 25 mM NaCl, and 2 mM DTT. Final substrate concentrations were 20 μM [γ-33P]ATP (35mCi 33P ATP/mmol ATP, Perkin Elmer/Sigma Chemicals) and 9 uM Sam68 protein. Assays were carried out at room temperature in the presence of 15 nM Plk1. An assay stock buffer solution was prepared containing all of the reagents listed above, with the exception of ATP and the test compound of interest. 0.75 μL of DMSO stock containing serial dilutions of the test compound (typically starting from a final concentration of 10 μM with 2-fold serial dilutions—final DMSO concentration 1.5%) was placed in a 384 well plate followed by addition of 25 μL [γ-33P]ATP (final concentration 20 μM). The reaction was initiated by addition of 25 μL of the assay stock buffer solution.
The reaction was stopped after 45 minutes by the addition of 25 μL 30% trichloroacetic acid (TCA) containing 10 mM cold ATP. The entire quenched reaction was transferred to a 384-well glass fiber filter plate (Millipore, Cat no. MZFBNOW50). The plate was washed with 3×5% TCA. After drying, 40 μL of Ultima Gold liquid scintillation cocktail (Perkin Elmer) was added to the well prior to scintillation counting in a PerkinElmer TopCount.
After removing mean background values for all of the data points, Ki(app) data were calculated from non-linear regression analysis of the initial rate data using the Prism software package (GraphPad Prism, GraphPad Software, San Diego California, USA).

[2] = test system: β-catenin-TCF-mediated reporter transcription activity in Colo 205 cells; experiment: Colo 205 reporter assay (TCF/LEF luciferase); assay type: cell-based; conditions: Colo 205 TCF/LEF luciferase reporter, five hours after addition of compound, read-out: TCF reporter Colo205 IC50
How it was run: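 Luciferase signal from a TCF/LEF-driven reporter, stably integrated in Colo 205 colon cancer cells, was measured 5 h after compound addition.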

[3] = test system: Colo205-TCF/LEF-Luciferase (Luc) tumor; experiment: In vivo inhibition of TCF/LEF reporter activity in Colo-205 tumors; parameters: concentration or dose not given beside the values; conditions: TCF/LEF luciferase reporter in Colo-205 tumors, nu/nu mice, oral gavage
How it was run: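 Female nu/nu mice carried subcutaneous Colo205-TCF/LEF-luciferase tumours (200–500 mm^3), n=4 per group. Compound was given by oral gavage in 1:3:5:1 EtOH:DMSO:PEG-400:H2O at 10 ml/kg, with vehicle as control. Luciferase activity in tumour lysates (Steady-Glo) was normalised to BCA protein.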

Chain of Plk1 (P53350 whole entry, species assumed): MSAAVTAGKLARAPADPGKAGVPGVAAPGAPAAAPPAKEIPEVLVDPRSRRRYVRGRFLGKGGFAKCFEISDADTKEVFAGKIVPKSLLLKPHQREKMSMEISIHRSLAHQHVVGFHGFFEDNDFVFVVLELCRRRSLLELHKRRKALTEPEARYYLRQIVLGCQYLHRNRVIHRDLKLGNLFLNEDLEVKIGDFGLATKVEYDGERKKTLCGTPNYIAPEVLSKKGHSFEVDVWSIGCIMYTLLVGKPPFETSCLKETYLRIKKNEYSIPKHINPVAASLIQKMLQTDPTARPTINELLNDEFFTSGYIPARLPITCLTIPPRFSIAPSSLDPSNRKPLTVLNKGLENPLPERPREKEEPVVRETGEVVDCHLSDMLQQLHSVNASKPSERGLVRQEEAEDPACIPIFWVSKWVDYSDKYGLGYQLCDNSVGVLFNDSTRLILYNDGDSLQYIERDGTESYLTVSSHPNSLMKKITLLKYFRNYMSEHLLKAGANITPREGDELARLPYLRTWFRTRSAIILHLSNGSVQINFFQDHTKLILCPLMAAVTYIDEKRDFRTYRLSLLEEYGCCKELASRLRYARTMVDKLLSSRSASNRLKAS

| Compound | Ki [1] [µM] | IC50 ([2]; Homo sapiens, COLO 205, 5 h) [µM] | Percent Remaining Activity at 8 hrs after Dosing [3] [%] | IC50 [2] [µM] |
| --- | --- | --- | --- | --- |
| Cc1nc(NCc2cnn(Cc3cc(F)c(F)c(F)c3)c2)nc2c1N(C)C(=O)[C@H](C)N2C [Compound 14, (7S)-4,5,7,8-tetramethyl-2-(((1-(3,4,5-trifluorobenzyl)-1H-pyrazol-4-yl)methyl)amino)-7,8-dihydropteridin-6(5H)-one] | > 4 | < 0.3 | 33 | – |
| CCC[C@H]1C(=O)N(C)c2cnc(NCc3cnn(Cc4cc(F)c(F)c(F)c4)c3)nc2N1C [Compound 23, (7S)-5,8-dimethyl-7-propyl-2-(((1-(3,4,5-trifluorobenzyl)-1H-pyrazol-4-yl)methyl)amino)-7,8-dihydropteridin-6(5H)-one] | > 4 | < 0.3 | – | – |
| C[C@H]1C(=O)Nc2cnc(NCc3cnn(Cc4cc(F)c(O)c(F)c4)c3)nc2N1C [Compound 50, (7S)-2-(((1-(3,5-difluoro-4-hydroxybenzyl)-1H-pyrazol-4-yl)methyl)amino)-7,8-dimethyl-7,8-dihydropteridin-6(5H)-one] | > 4 | ≥ 5 | – | – |
| CC[C@H]1C(=O)N(C)c2cnc(NCc3cnn(Cc4ccc(F)cc4)c3)nc2N1C(C)C [Compound 32, (7S)-7-ethyl-2-(((1-(4-fluorobenzyl)-1H-pyrazol-4-yl)methyl)amino)-8-isopropyl-5-methyl-7,8-dihydropteridin-6(5H)-one] | > 4 | 0.3 to 1 | – | – |
| CCN1C(=O)[C@](C)(CC)N(CC)c2nc(NCc3cnn(Cc4ccc(F)cc4)c3)ncc21 [Compound 34, (7S)-5,7,8-triethyl-2-(((1-(4-fluorobenzyl)-1H-pyrazol-4-yl)methyl)amino)-7-methyl-7,8-dihydropteridin-6(5H)-one] | > 4 | 0.3 to 1 | – | – |
| Cc1nc(N[C@H]2C[C@@H](Cn3nccc3C(F)(F)F)C2)nc2c1NC(=O)[C@H](C)N2C [Compound 275, (7S)-4,7,8-trimethyl-2-((cis-3-((5-(trifluoromethyl)-1H-pyrazol-1-yl)methyl)cyclobutyl)amino)-7,8-dihydropteridin-6(5H)-one] | > 4 | < 0.3 | – | – |
| CN1C(=O)C(C)(C)N(C)c2nc(NCc3cnn(Cc4ccc(F)cc4)c3)ncc21 [Compound 224, 2-(((1-(4-fluorobenzyl)-1H-pyrazol-4-yl)methyl)amino)-5,7,7,8-tetramethyl-7,8-dihydropteridin-6(5H)-one] | > 4 | < 0.3 | – | – |
| CC[C@]1(C)C(=O)N(C)c2cnc(NCc3cnn(Cc4ccc(F)cc4)c3)nc2N1C [Compound 3, (7R)-7-ethyl-2-(((1-(4-fluorobenzyl)-1H-pyrazol-4-yl)methyl)amino)-5,7,8-trimethyl-7,8-dihydropteridin-6(5H)-one] | > 4 | < 0.3 | – | – |
| CN1C(=O)C(C)(C)N(C)c2nc(NCc3cnn(Cc4cc(F)c(F)c(F)c4)c3)ncc21 [Compound 229, 5,7,7,8-tetramethyl-2-(((1-(3,4,5-trifluorobenzyl)-1H-pyrazol-4-yl)methyl)amino)-7,8-dihydropteridin-6(5H)-one] | > 4 | < 0.3 | 49 | – |
| CCN1c2nc(NCc3cnn(Cc4ccc(F)cc4)c3)ncc2N(C)C(=O)[C@@H]1C [Compound 22, (7S)-8-ethyl-2-(((1-(4-fluorobenzyl)-1H-pyrazol-4-yl)methyl)amino)-5,7-dimethyl-7,8-dihydropteridin-6(5H)-one] | > 4 | < 0.3 | – | – |
| CCN1C(=O)[C@H](CCO)N(CC)c2nc(NCc3cnn(Cc4cc(F)c(OC)c(F)c4)c3)ncc21 [Compound 48, (7S)-2-(((1-(3,5-difluoro-4-methoxybenzyl)-1H-pyrazol-4-yl)methyl)amino)-5,8-diethyl-7-(2-hydroxyethyl)-7,8-dihydropteridin-6(5H)-one] | > 4 | < 0.3 | – | – |
| Cc1nc(N[C@H]2CC[C@H](Oc3cc(F)c(F)c(F)c3)C2)nc2c1NC(=O)[C@H](C)N2C [Compound 268, (S)-4,7,8-trimethyl-2-(((1S,3S)-3-(3,4,5-trifluorophenoxy)cyclopentyl)amino)-7,8-dihydropteridin-6(5H)-one] | > 4 | – | – | 0.3 to 1 |
| COc1c(F)cc(Cn2cc(CNc3ncc4c(n3)N(C)[C@@H](C)C(=O)N4)cn2)cc1F [Compound 44, (7S)-2-(((1-(3,5-difluoro-4-methoxybenzyl)-1H-pyrazol-4-yl)methyl)amino)-7,8-dimethyl-7,8-dihydropteridin-6(5H)-one] | > 4 | < 0.3 | – | – |
| Cc1nc(NCc2cnn(CC3CCC3)c2)nc2c1NC(=O)[C@H](C)N2C [Compound 5, (7S)-2-(((1-(cyclobutylmethyl)-1H-pyrazol-4-yl)methyl)amino)-4,7,8-trimethyl-7,8-dihydropteridin-6(5H)-one] | > 4 | 0.3 to 1 | – | – |
| Cc1nc(NCc2ccc(Oc3ccc(F)cc3)nc2)nc2c1NC(=O)[C@H](C)N2C [Compound 54, (7S)-2-(((6-(4-fluorophenoxy)pyridin-3-yl)methyl)amino)-4,7,8-trimethyl-7,8-dihydropteridin-6(5H)-one] | > 4 | < 0.3 | – | – |
| CCC[C@H]1C(=O)N(C)c2cnc(NCc3cnn(Cc4ccc(F)cc4)c3)nc2N1C [Compound 24, (7S)-2-(((1-(4-fluorobenzyl)-1H-pyrazol-4-yl)methyl)amino)-5,8-dimethyl-7-propyl-7,8-dihydropteridin-6(5H)-one] | > 4 | 0.3 to 1 | – | – |
| Cc1nc(NCc2cnn(CCC3CCCCC3)c2)nc2c1NC(=O)[C@H](C)N2C [Compound 113, (7S)-2-(((1-(2-cyclohexylethyl)-1H-pyrazol-4-yl)methyl)amino)-4,7,8-trimethyl-7,8-dihydropteridin-6(5H)-one] | > 4 | < 0.3 | – | – |
| CCN1C(=O)[C@@](C)(CC)N(CC)c2nc(NCc3cnn(Cc4ccc(F)cc4)c3)ncc21 [Compound 234, (7R)-5,7,8-triethyl-2-(((1-(4-fluorobenzyl)-1H-pyrazol-4-yl)methyl)amino)-7-methyl-7,8-dihydropteridin-6(5H)-one] | > 4 | – | – | 0.3 to 1 |
| Cc1nc(NCc2cnn([C@H]3C[C@H](c4ccc(F)cc4)C3)c2)nc2c1NC(=O)[C@H](C)N2C [Compound 112, (7S)-2-(((trans-1-(3-(4-fluorophenyl)cyclobutyl)-1H-pyrazol-4-yl)methyl)amino)-4,7,8-trimethyl-7,8-dihydropteridin-6(5H)-one] | > 4 | < 0.3 | – | – |
| Cc1nc(NCc2cnn(Cc3cccc(C(F)(F)F)c3)c2)nc2c1NC(=O)[C@H](C)N2C [Compound 47, (7S)-4,7,8-trimethyl-2-(((1-(3-(trifluoromethyl)benzyl)-1H-pyrazol-4-yl)methyl)amino)-7,8-dihydropteridin-6(5H)-one] | > 4 | < 0.3 | – | – |
| CC[C@H]1C(=O)N(C)c2cnc(NCc3cnn(Cc4cc(F)c(F)c(F)c4)c3)nc2N1C [Compound 15, (7S)-7-Ethyl-5,8-dimethyl-2-(((1-(3,4,5-trifluorobenzyl)-1H-pyrazol-4-yl)methyl)amino)-7,8-dihydropteridin-6(5H)-one] | > 4 | < 0.3 | – | – |
| Cc1nc(N[C@@H]2CC[C@@H](Oc3cc(F)c(F)c(F)c3)C2)nc2c1NC(=O)[C@H](C)N2C [Compound 267, (S)-4,7,8-trimethyl-2-(((1R,3R)-3-(3,4,5-trifluorophenoxy)cyclopentyl)amino)-7,8-dihydropteridin-6(5H)-one] | > 4 | < 0.3 | – | – |
| Cc1nc(NCc2cnn(Cc3ccc(C(F)(F)F)o3)c2)nc2c1NC(=O)[C@H](C)N2C [Compound 192, (7S)-4,7,8-trimethyl-2-(((1-((5-(trifluoromethyl)furan-2-yl)methyl)-1H-pyrazol-4-yl)methyl)amino)-7,8-dihydropteridin-6(5H)-one] | > 4 | < 0.3 | – | – |
| Cc1nc(NCc2cnn(C3Cc4ccccc4C3)c2)nc2c1NC(=O)[C@H](C)N2C [Compound 116, (7S)-2-(((1-(2,3-dihydro-1H-inden-2-yl)-1H-pyrazol-4-yl)methyl)amino)-4,7,8-trimethyl-7,8-dihydropteridin-6(5H)-one] | > 4 | < 0.3 | – | – |
